Measurements as given in patent US20170369470A1, “Cyclic Compounds and Uses Thereof” (Karyopharm Therapeutics Inc., priority 2014, published 2017).

Assays:
Format in all cases: cell-based
3T3 cells = assay: MTT cell proliferation assay, 3T3 cells; conditions: NIH3T3; 3T3 fibroblast cells (Swiss mouse embryo); incubation approximately 64-72 hours
Method: (§1) The MTT cell proliferation assay was used to study the cytotoxic properties of the compounds. The assay was performed according to the method described by Roche Molecular Biochemicals, with minor modifications. The assay is based on the cleavage of the tetrazolium salt, MTT, in the presence of an electron-coupling reagent. The water-insoluble formazan salt produced must be solubilized in an additional step. Cells grown in a 96-well tissue culture plate were incubated with the MTT solution for approximately 4 hours. After this incubation period, a water-insoluble formazan dye formed. After solubilization, the formazan dye was quantitated using a scanning multi-well spectrophotometer (ELISA reader). […] The cells were seeded at 5,000-10,000 cells in each well of 96-well plate in 100 μL of fresh culture medium and were allowed to attach overnight. The stock solutions of the compounds were diluted in 100 μL cell culture medium to obtain eight concentrations of each test compound, ranging from 1 nM to 30 μM. […] All optical densities were measured at 490 nm using a Vmax Kinetic Microplate Reader (Molecular Devices). In most cases, the assay was performed in duplicate and the results were presented as a mean percent inhibition to the negative control±SE. The following formula was used to calculate the percent of inhibition: Inhibition (%)=(1−(ODo/OD))×100.
(§2) The compounds were tested against MS751, Z138 and 3T3 cells. The MS751 cell line is derived from a metastasis to lymph node of human cervix from a patient diagnosed with squameous cell carcinoma of the cervix. The Z138 cell line is a mature B-cell acute lymphoblastic leukemia cell line derived from a patient with chronic lumphocytic leukemia. 3T3 cells are standard fibroblast cells; they were originally isolated from Swiss mouse embryo tissue.

Z138 cells = assay: MTT cell proliferation assay, Z138 cells; conditions: Homo sapiens, Z-138; Z138 cells (mantle cell lymphoma line); incubation approximately 64-72 hours
Method: as §1, §2

MS751 cells = assay: MTT cell proliferation assay, MS751 cells; conditions: MS751 cells (human cervix squamous cell carcinoma metastasis); incubation approximately 64-72 hours; read-out: MTT Assay IC50 MS 751
Method: as §1, §2

Row | Compound | IC50 (3T3 cells) [µM] | IC50 (Z138 cells) [µM] | IC50 (MS751 cells) [µM]
1 | Nc1ccc(/C=C/C(=O)NCc2cc3cc(-c4ccc(C(=O)N5CC[C@H](F)C5)cn4)cc(C(F)(F)F)c3s2)cn1 [compound 513, (S,E)-3-(6-aminopyridin-3-yl)-N-((5-(5-(3-fluoropyrrolidine-1-carbonyl)pyridin-2-yl)-7-(trifluoromethyl)benzo[b]thiophen-2-yl)methyl)acrylamide] | 5 to 10 | 1 to 5 | 1 to 5
2 | CC1(O)CCN(C(=O)c2ccc(-c3cc(C(F)(F)F)c4sc(CNC(=O)/C=C/c5ccc(N)nc5)cc4c3)nc2)CC1 [compound 516, (E)-3-(6-aminopyridin-3-yl)-N-((5-(5-(4-hydroxy-4-methylpiperidine-1-carbonyl)pyridin-2-yl)-7-(trifluoromethyl)benzo[b]thiophen-2-yl)methyl)acrylamide] | > 10 | < 1 | 1 to 5
3 | Nc1ccc(/C=C/C(=O)NCc2nc3cc(-c4ccc(C(=O)N5CCC(F)(F)CC5)cn4)cc(C(F)(F)F)c3s2)cn1 [compound 532, (E)-3-(6-aminopyridin-3-yl)-N-((5-(5-(4,4-difluoropiperidine-1-carbonyl)pyridin-2-yl)-7-(trifluoromethyl)benzo[d]thiazol-2-yl)methyl)acrylamide] | > 10 | < 1 | < 1
4 | Nc1ccc(/C=C/C(=O)NCc2cc3cc(-c4ccc(C(=O)N5CCC(F)(F)CC5)cc4)cc(C(F)(F)F)c3s2)cn1 [compound 518, (E)-3-(6-aminopyridin-3-yl)-N-((5-(4-(4,4-difluoropiperidine-1-carbonyl)phenyl)-7-(trifluoromethyl)benzo[b]thiophen-2-yl)methyl)acrylamide] | > 10 | 1 to 5 | 1 to 5
5 | Cn1c(CNC(=O)/C=C/c2ccc(N)nc2)nc2c(C(F)(F)F)cc(-c3ccc(C(=O)N4CCC(F)(F)CC4)cn3)cc21 [compound 531, (E)-3-(6-aminopyridin-3-yl)-N-((6-(5-(4,4-difluoropiperidine-1-carbonyl)pyridin-2-yl)-1-methyl-4-(trifluoromethyl)-1H-benzo[d]imidazol-2-yl)methyl)acrylamide] | > 10 | > 10 | > 10
6 | Nc1ccc(/C=C/C(=O)NCc2cc3cc(-c4ccc(C(=S)N5CCC(F)(F)CC5)cn4)cc(C(F)(F)F)c3s2)cn1 [compound 504, (E)-3-(6-aminopyridin-3-yl)-N-((5-(5-(4,4-difluoropiperidine-1-carbonothioyl)pyridin-2-yl)-7-(trifluoromethyl)benzo[b]thiophen-2-yl)methyl)acrylamide] | > 10 | < 1 | < 1
7 | CC1(C)CN(C(=O)c2ccc(-c3cc(C(F)(F)F)c4sc(CNC(=O)/C=C/c5ccc(N)nc5)cc4c3)nc2)CCO1 [compound 514, (E)-3-(6-aminopyridin-3-yl)-N-((5-(5-(2,2-dimethylmorpholine-4-carbonyl)pyridin-2-yl)-7-(trifluoromethyl)benzo[b]thiophen-2-yl)methyl)acrylamide] | > 10 | < 1 | 1 to 5
8 | Nc1ccc(/C=C/C(=O)NCc2cc3cc(-c4ccc(C(=O)N5CC6(C5)CC(F)(F)C6)cn4)cc(C(F)(F)F)c3s2)cn1 [compound 515, (E)-3-(6-aminopyridin-3-yl)-N-((5-(5-(6,6-difluoro-2-azaspiro[3.3]heptane-2-carbonyl)pyridin-2-yl)-7-(trifluoromethyl)benzo[b]thiophen-2-yl)methyl)acrylamide] | > 10 | < 1 | < 1
9 | Nc1ccc(/C=C/C(=O)NCc2cc3cc(-c4ccc(C(=O)N5CC6(C5)CC(F)(F)C6)cc4)cc(C(F)(F)F)c3s2)cn1 [compound 527, (E)-3-(6-aminopyridin-3-yl)-N-((5-(4-(6,6-difluoro-2-azaspiro[3.3]heptane-2-carbonyl)phenyl)-7-(trifluoromethyl)benzo[b]thiophen-2-yl)methyl)acrylamide] | > 10 | 1 to 5 | 1 to 5
10 | Nc1ccc(/C=C/C(=O)NCc2cc3cc(-c4ccc(C(=O)N5CC6(COC6)C5)cn4)cc(C(F)(F)F)c3s2)cn1 [compound 511, (E)-N-((5-(5-(2-oxa-6-azaspiro[3.3]heptane-6-carbonyl)pyridin-2-yl)-7-(trifluoromethyl)benzo[b]thiophen-2-yl)methyl)-3-(6-aminopyridin-3-yl)acrylamide] | > 10 | < 1 | < 1
11 | Nc1ccc(/C=C/C(=O)NCc2nc3cc(-c4ccc(C(=O)N5CCC(F)(F)CC5)cc4)cc(C(F)(F)F)c3s2)cn1 [compound 533, (E)-3-(6-aminopyridin-3-yl)-N-((5-(4-(4,4-difluoropiperidine-1-carbonyl)phenyl)-7-(trifluoromethyl)benzo[d]thiazol-2-yl)methyl)acrylamide] | > 10 | < 1 | < 1
12 | CC1(C)CN(C(=O)c2ccc(-c3cc(C(F)(F)F)c4sc(CNC(=O)/C=C/c5ccc(N)nc5)cc4c3)cc2)CCO1 [compound 526, (E)-3-(6-aminopyridin-3-yl)-N-((5-(4-(2,2-dimethylmorpholine-4-carbonyl)phenyl)-7-(trifluoromethyl)benzo[b]thiophen-2-yl)methyl)acrylamide] | > 10 | < 1 | 1 to 5
13 | Nc1ccc(/C=C/C(=O)NCc2nc3cc(-c4ccc(C(=O)N5CCC(F)(F)CC5)cc4)cc(-c4ccc(F)cc4)c3s2)cn1 [compound 535, (E)-3-(6-aminopyridin-3-yl)-N-((5-(4-(4,4-difluoropiperidine-1-carbonyl)phenyl)-7-(4-fluorophenyl)benzo[d]thiazol-2-yl)methyl)acrylamide] | > 10 | 1 to 5 | 1 to 5
14 | Nc1ccc(/C=C/C(=O)NCc2cc3cc(-c4ccc(C(=O)N5CCC(F)CC5)cc4)cc(C(F)(F)F)c3s2)cn1 [compound 529, (E)-3-(6-aminopyridin-3-yl)-N-((5-(4-(4-fluoropiperidine-1-carbonyl)phenyl)-7-(trifluoromethyl)benzo[b]thiophen-2-yl)methyl)acrylamide] | > 10 | > 10 | > 10
15 | Nc1ccc(/C=C/C(=O)NCc2cc3cc(-c4ccc(C(=O)N5CC(F)(F)C5)cn4)cc(C(F)(F)F)c3s2)cn1 [compound 512, (E)-3-(6-aminopyridin-3-yl)-N-((5-(5-(3,3-difluoroazetidine-1-carbonyl)pyridin-2-yl)-7-(trifluoromethyl)benzo[b]thiophen-2-yl)methyl)acrylamide] | 5 to 10 | < 1 | 1 to 5
16 | Nc1ccc(/C=C/C(=O)NCc2cc3cc(-c4ccc(C(=O)N5CCC(O)(C(F)(F)F)CC5)cc4)cc(C(F)(F)F)c3s2)cn1 [compound 521, (E)-3-(6-aminopyridin-3-yl)-N-((5-(4-(4-hydroxy-4-(trifluoromethyl)piperidine-1-carbonyl)phenyl)-7-(trifluoromethyl)benzo[b]thiophen-2-yl)methyl)acrylamide] | > 10 | 1 to 5 | 1 to 5
17 | Nc1ccc(/C=C/C(=O)NCc2cc3cc(-c4ccc(C(=O)N5CCC(F)(F)C5)cn4)cc(C(F)(F)F)c3s2)cn1 [compound 510, (E)-3-(6-aminopyridin-3-yl)-N-((5-(5-(3,3-difluoropyrrolidine-1-carbonyl)pyridin-2-yl)-7-(trifluoromethyl)benzo[b]thiophen-2-yl)methyl)acrylamide] | > 10 | 1 to 5 | 1 to 5
18 | Nc1ccc(/C=C/C(=O)NCc2cc3cc(-c4ccc(C(=O)N5CCC(F)CC5)cn4)cc(C(F)(F)F)c3s2)cn1 [compound 517, (E)-3-(6-aminopyridin-3-yl)-N-((5-(5-(4-fluoropiperidine-1-carbonyl)pyridin-2-yl)-7-(trifluoromethyl)benzo[b]thiophen-2-yl)methyl)acrylamide] | > 10 | 1 to 5 | 1 to 5
19 | CC1(O)CCN(C(=O)c2ccc(-c3cc(C(F)(F)F)c4sc(CNC(=O)/C=C/c5ccc(N)nc5)cc4c3)cc2)CC1 [compound 528, (E)-3-(6-aminopyridin-3-yl)-N-((5-(4-(4-hydroxy-4-methylpiperidine-1-carbonyl)phenyl)-7-(trifluoromethyl)benzo[b]thiophen-2-yl)methyl)acrylamide] | > 10 | < 1 | 1 to 5
20 | CC1(C)COCCN1C(=O)c1ccc(-c2cc(C(F)(F)F)c3sc(CNC(=O)/C=C/c4ccc(N)nc4)cc3c2)cc1 [compound 523, (E)-3-(6-aminopyridin-3-yl)-N-((5-(4-(3,3-dimethylmorpholine-4-carbonyl)phenyl)-7-(trifluoromethyl)benzo[b]thiophen-2-yl)methyl)acrylamide] | > 10 | 1 to 5 | 1 to 5
